Assay: Maximum mass content of ester added to a gum-in-silicone-oil solution without precipitation of the gum
Format: physicochemical
Details: 25° C.; 13% gum solution in polydimethylsiloxane (Q2-1403)
Method: The maximum mass content of ester which may be added, at 25° C., to a solution of gum in a silicone oil without observing precipitation of the gum was measured.

Maximum mass content of ester which may be added without observing precipitation of the gum | Compound
68% | CC(C)CCCCCCCCCCCCCCCOC(=O)C(C)(C)C [Isostearyl neopentanoate]
to at least 1000% | Octyldodecyl neopentanoate
72% | CCCCCCCCC(CCCCCC)COC(=O)CCCCCC(C)C (stereo not shown) [2-hexyldecyl isononanoate]
60% | CC(C)CCCCCCCCCCCCCCCOC(=O)CCCCCC(C)C [Isostearyl isononanoate]
